This passage reports Hyaluronic acid stimulation and Collagen stimulation results from US9408796B2, “Cosmetic compositions for improving the appearance of skin” (Avon Products, Inc., priority 2013, dated 2016).

Assay [1] deals with Human dermal fibroblasts. In words: Hyaluronic acid stimulation: hyaluronic acid test kit on conditioned medium. It is filed as cell-based. Conditions: 0.0005% compound, 48-hour incubation, increase in hyaluronic acid over the vehicle control. The method, then: (§1) Human dermal fibroblasts (Cascade Biologics, Portland, Oreg.) were plated at in 96-well culture plates in supplemented medium (DMEM, 10% Fetal Bovine Serum, 1% Penicillin/Streptomycin and 1% L-Glutamine) overnight in humidified atmosphere of 10% CO2 at 37° C. The following day, the medium was replaced with fresh medium (DMEM, 1% Penicillin/Streptomycin and 1% L-Glutamine) and the actives dissolved in a vehicle were added to the wells in triplicate. Vehicle was used as control. Following 48-hour incubation, the plates were removed from the incubator and the medium from each well was collected for the hyaluronic acid assay.
Hyaluronic acid production was measured using hyaluronic acid test kit (Corgenix, Inc. CO, USA). Briefly, 100 μl diluted conditioned medium was added to appropriate microwells and was incubated for 60 minutes at room temperature. After the incubation is complete, the conditioned medium was removed and 100 μl HRP-conjugated HABP solution was added to each well and incubated for 30 minutes at room temperature. Wash each well 4 times with PBS after the incubation is complete. Add 100 μl One-component Substrate Solution to each well and incubate for 30 minutes at room temperature. Add 100 μl Stopping Solution to stop the enzyme reaction and read the O.D. of each well at 450 nm. The amount of hyaluronic acid in the conditioned medium was calculated from the standard curve. […]

Assay [2] deals with Human dermal fibroblasts. The assay can be described thus: Collagen stimulation: procollagen type I C-peptide (PIP) EIA on conditioned medium. It is filed as cell-based. Conditions: 0.0005% compound, 48-hour incubation, increase in collagen over the vehicle control. The procedure:
as §1, with “Collagen. Human” for “Human”, “procollagen” for “hyaluronic acid”
Collage production was measured using procollagen type I C-peptide (PIP) EIA kit (Takara Bio, Inc., Japan). Briefly, the conditioned medium was diluted 1:10 in Sample Diluent. 20 μl of diluted conditioned medium and 100 μl of antibody-POD conjugate solution were added to the wells of the Takara ELISA plate. The ELISA plate was incubated at 37° C. for 3 hours before the wells were washed four times with 400 μl of 1×PBS. At the end of wash, 100 μl of substrate solution (supplied with kit) was added to the wells and incubated at room temperature for 15 minutes. […] The absorbance was measured on a spectrophotometer at 450 nm wavelength. The amount of procollagen peptide in the conditioned medium was calculated from the standard curve. […]

Consider `COc1cccc(-c2nc(-c3ccc(O)c(C(N)=O)c3)cs2)c1OC` [Formula I(d)], for which the Hyaluronic acid stimulation entry in the assay on Human dermal fibroblasts [1] is reported as “+ (The “+” describes a stimulation of between 21-40%)”. The Collagen stimulation result in the assay on Human dermal fibroblasts [2] is “+ (The “+” describes a stimulation of between 21-40%)”.

Take `COc1ccccc1CNc1nc(-c2ccc(O)c(C(N)=O)c2)cs1` [Formula I(c)]: in the assay with Human dermal fibroblasts [2], the Collagen stimulation entry is reported as “+ (The “+” describes a stimulation of between 21-40%)”.
